Experimental data as given in patent publication US20050004039A1, “Selective analgesic agents” (Regents of the University of Minnesota, priority 2002, published 2005).

Legend:
mice [1] = assay: Antagonism of selective opioid agonist-induced antinociception, intrathecal, modified tail flick assay; type: in vivo, mouse; settings: for norBNI antagonism of antinociception with co-administered dynorphin-A antiserum (DAS): FIG. 7, FIG. 8
[2] = test system: guinea pig ileum preparation; assay: Guinea pig ileal longitudinal muscle preparation, electrically stimulated contraction; settings: guinea pig ilium preparation
mice [3] = assay: Tail-flick analgesia after intrathecal or intraventricular administration; type: in vivo, mouse
From the text: In the tail-flick assay which was modified for mice, the animal responses are made quantal by establishing and end point at the mean peak effect which represents an increase in the reaction time of an individual animal of greater than three S.D. of the control mean reaction time for all animals used in the group (see F. E. d'Amour et al., J. Pharmacol. Exp. Ther., 1941, 72, 7479; and J. J. Rady et al., J. Pharmacol Exp. Ther., 2000, 224, 93-101). Non-responding animals will be removed from the heat stimulus when reaction times exceed 3 seconds to avoid damage to their tails. At least 50 animals will be used to determine each peak time and ED50 dose-response curve. The ED50 and its 95% confidence interval are estimated using computer programs for both of these statistical procedures.

[4] = test system: mouse vas deferens preparation; assay: Mouse vas deferens preparation (MVD)
Procedure: Mouse vasa deferentia are prepared using the method of Henderson, et al (see Henderson, G.; Hughes, J.; Kosterlitz, H. W., Br. J. Pharmacol. 1972, 46, 764-766). Male ICR mice (30-35 g) are killed by cervical dislocation. Both vasa deferentia are removed and mounted between platinum ring electrodes and placed in a 10-mL organ bath containing a modified Kreb's solution (NaCl, 118 mM; KCl, 4.70 mM;CaCl2, 2.52 mM; KH2PO4, 1.19 mM; NaHCO3, 25 mM; glucose, 11.48 mM; pH =7.4) at 37° C. The bath is continuously bubbled with a 95% O2, 5% CO2, gas mixture. One end of the vas deferens is attached to the electrode assembly, the other is attached to a Statham-Gould UC-3 isometric force transducer using 6.0 surgical silk. The vasa deferentia are stimulated transmurally with a Grass S44 stimulator (square waves of supramaximal voltage (70 V) for 1 msec and a frequency of 0.1 Hz). Resting tension is 200 mg. Vasa deferentia are stimulated continuously for 20 minutes before each experiment to allow equilibration to occur. The tissues are washed every 10 minutes during this period.

[5] = ED50 with nor-BNI / control ED50
[6] = agonist i.t. with antagonist BNTX 25 pmol/mouse i.t.
[7] = agonist i.t. with antagonist CTOP 5.9 pmol/mouse i.t.
[8] = agonist i.t. with antagonist NTB 50 pmol/mouse i.t.
[9] = agonist i.t. with antagonist nor-BNI 2.5 nmol/mouse i.t.
[10] = intrathecal (i.t.) administration

| Molecule | Potency Ratio (95% C.I.) (mice [1]; ED50 with BNTX / control ED50) | Potency Ratio (95% C.I.) (mice [1]; ED50 with CTOP / control ED50) | Potency Ratio (95% C.I.) (mice [1]; ED50 with NTB / control ED50) | Potency Ratio (95% C.I.) (mice [1]; [5]) | norBNI antagonism of antinociception with co-administered dynorphin-A antiserum (DAS) (mice [1]) | ED50 (95% C.I.) (mice [1]; [6]) | ED50 (95% C.I.) (mice [1]; [7]) | ED50 (95% C.I.) (mice [1]; [8]) | ED50 (95% C.I.) (mice [1]; [9]) | antagonism of antinociception by CTOP (μ antagonist), in words (mice [1]; i.t., mice) | antagonism of antinociception by nor-BNI (κ antagonist), in words (mice [1]; i.t., mice) | antagonism of agonist effect by delta antagonist naltrindole (NTI) [2] | analgesia (mice [3]; icv, concentration 20-fold that of the i.t. dose) | ED50 analgesia (mice [3]; [10]) | antagonism of i.t. analgesia by norBNI (mice [3]; [10]) | analgesic effect (mice [3]; intraventricular (icv), 10-fold higher concentration than i.t.) | agonist or antagonist activity in MVD [4] | antagonism of antinociception by BNTX, in words (mice [1]; i.t., mice) |
| --- | --- | --- | --- | --- | --- | --- | --- | --- | --- | --- | --- | --- | --- | --- | --- | --- | --- | --- |
| C[C@@H](NC(=O)[C@@H](N)Cc1ccc(O)cc1)C(=O)NCC(=O)N(C)[C@@H](Cc1ccccc1)C(=O)NCCO [DAMGO, [D-Ala^2,N-Me-Phe^4,Gly-ol^5]enkephalin] | 1.50 (0.94-2.83) | 9.89 (5.91-15.34) | 1.20 (0.61-3.26) | 26.26 (16.30-46.90) | little if any antagonism | 0.017 (0.012-0.027) nmol/mouse | 0.112 (0.070-0.157) nmol/mouse | 0.014 (0.008-0.027) nmol/mouse | 0.283 (0.202-0.417) nmol/mouse | antagonized | antagonized | – | – | – | – | – | – | – |
| NC(N)=Nc1ccc2c3c([nH]c2c1)[C@@H]1Oc2c(O)ccc4c2[C@@]12CCN(CC1CC1)C(C4)[C@]2(O)C3 [compound 7, 6′-Guanidino-17-(cyclopropylmethyl)-6,7-didehydro-4,5α-epoxy-3,14-hydroxyindolo-[2′,3′:6,7]morphinian] | – | – | – | – | – | – | – | – | – | – | – | non-competetively antagonized | 20% | 0.45 nmol/mouse | could be antagonized by norBNI | no analgesic effect | inactive as an agonist or as an antagonist | – |
| [D-Pen^2,5]enkephalin [DPDPE] | 10.61 (6.08-18.51) | 1.43 (1.06-1.93) | 0.98 (0.71-1.41) | 12.44 (9.91-15.83) | failed to substantially reduce the potent norBNI antagonism | 41.10 (26.44-60.95) nmol/mouse | 5.11 (4.04-6.37)) nmol/mouse | 3.44 (2.69-4.45) nmol/mouse | 43.30 (36.40-51.59) nmol/mouse | – | antagonized | – | – | – | – | – | – | antagonized |
